In assay [1] the target is T1, serotonin 2 receptor (Rattus norvegicus, UniProt P14842).
T1 construct: To the receptor fraction of the cerebral cortex were added a test compound and 0.3 nM of [^3H] ketanserin; from tissue; host or cells: rat cerebral cortex membrane fraction
The experiment in a line: Binding test on [3H] ketanserin, cerebral cortex receptor fraction. More on the design: species or system SD rats. The conditions noted are these: 0.3 nM [3H] ketanserin, 37° C. 15 min, read-out: 5HT2.
Experimental: Methysergide maleate was dissolved in distilled water before using.
Use was made of SD rats aged 6 to 8 weeks.
The rats were sacrificed by dcapitation to extirpate the cerebra.
Each mixture was homogenized by using a Teflon glass homogenizer and centrifuged as 1,000× g for 10 min. The supernatant thus obtained was further centrifuged at 20,000× g for 20 min. […] After centrifuging at 20,000× g for 20 min, the obtained precipitate was further suspended and centrifuged twice each in the same manner. […] This receptor fraction was stored at −80° C. until using.
To the receptor fraction of the cerebral cortex were added a test compound and 0.3 nM of [^3H] ketanserin and the resultant mixture was incubated at 37° C. for 15 min. Next, it was filtered through a glass filter with the use of a cell harvester. After washing the glass filter with 50 mM Tris hydrochloride (pH 7.4), the radioactivity of the receptor was measured with a liquid scintillation counter. The binding detected in the presence of 1 μM of methysergide was referred to as the nonspecific binding.
IC50 was calculated by the probit method, while Ki was determined in accordance with the following formula: Ki=IC50(1+c/Kd) wherein c represents the concentration of the radioisotope-labeled compound, and Kd represents the dissociation constant of the radioisotope-labeled compound with respect to the receptor determined by Scatchard's analysis.

For assay [2], the target named is T2, serotonin 1A receptor (Rattus norvegicus, UniProt P19327).
T2 construct: To the receptor fraction of the hippocampus were added a test compound and 0.5 nM of [^3H]; 8-hydroxy-dipropylaminotetralin; from tissue; host or cells: rat hippocampus membrane fraction
T2 sequence (P19327 1-422): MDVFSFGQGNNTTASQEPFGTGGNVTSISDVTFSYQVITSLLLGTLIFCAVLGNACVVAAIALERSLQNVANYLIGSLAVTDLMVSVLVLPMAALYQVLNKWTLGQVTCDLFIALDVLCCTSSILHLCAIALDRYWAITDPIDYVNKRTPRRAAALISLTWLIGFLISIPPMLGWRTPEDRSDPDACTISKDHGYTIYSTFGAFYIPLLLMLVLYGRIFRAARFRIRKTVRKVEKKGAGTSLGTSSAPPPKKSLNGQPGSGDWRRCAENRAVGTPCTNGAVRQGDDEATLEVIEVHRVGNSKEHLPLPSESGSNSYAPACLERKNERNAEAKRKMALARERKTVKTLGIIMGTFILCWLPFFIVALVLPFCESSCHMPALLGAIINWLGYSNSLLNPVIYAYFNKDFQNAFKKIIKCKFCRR
The experiment in a line: Binding test on [3H] 8-hydroxy-dipropylaminotetralin, hippocampus receptor fraction. More on the design: species or system SD rats. Particulars: rat hippocampus receptor fraction, 0.5 nM [3H] 8-OH-DPAT, room temperature 30 min; read-out: 5HT1.

Each structure is given as a SMILES string. Structures can show the parent of a compound that is named as a salt.

T1 sequence (P14842 whole entry): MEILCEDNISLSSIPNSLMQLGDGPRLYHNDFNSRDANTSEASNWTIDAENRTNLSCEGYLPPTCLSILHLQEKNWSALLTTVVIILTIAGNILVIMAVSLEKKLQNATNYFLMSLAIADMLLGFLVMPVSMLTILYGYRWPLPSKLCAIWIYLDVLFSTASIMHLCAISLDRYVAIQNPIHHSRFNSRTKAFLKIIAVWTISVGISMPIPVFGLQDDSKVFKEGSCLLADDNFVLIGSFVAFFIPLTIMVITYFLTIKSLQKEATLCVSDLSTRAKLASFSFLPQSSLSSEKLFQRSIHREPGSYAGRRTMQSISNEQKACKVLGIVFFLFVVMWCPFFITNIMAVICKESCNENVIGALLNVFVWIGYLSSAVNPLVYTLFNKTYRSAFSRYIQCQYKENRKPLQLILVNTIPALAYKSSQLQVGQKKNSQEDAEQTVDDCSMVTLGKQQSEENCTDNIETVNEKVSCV

On to `CCN1CCN(c2nc(/C=C/c3cccc(OCCO)c3)cc3ccsc23)CC1` [Example 430, 7-(4-ethylpiperazin-1-yl)-5-[3-(2-hydroxyethoxy)styryl]thieno [2,3-c]pyridine hydrochloride], for which the results for the Ki in assay [1] and in assay [2] were 11.7 nM and 2.48 nM, respectively.
The matching figures for `CCN1CCN(c2nc(-c3cc(OCCO)cc(OCCO)c3)cc3ccccc23)CC1` [Example 38, 3-[3,5-di(2-hydroxyethoxy)phenyl]-1-(4-ethylpiperazin-1-yl)isoquinoline hydrochloride]: 75.7 nM and 20.8 nM.
In the case of `CCN1CCN(c2nc(-c3ccc(OC)c(OC)c3)cc3ccccc23)CC1` [Example 14, 3-(3,4-dimethoxyphenyl)-1-(4-ethylpiperazin-1-yl)isoquinoline Dihydrochloride], the Ki was found to be 35 nM in assay [1] and 23 nM in assay [2].
As to `CCS(=O)(=O)NCc1ccc(-c2cc3ccccc3c(N3CCN(CCO)CC3)n2)cc1` [Example 243, 3-(4-ethylsulfonylaminomethylphenyl)-1-[4-(2-hydroxyethyl)piperazin-1-yl]isoquinoline Hydrochloride], the Ki in assay [1] worked out at 6.7 nM; in assay [2], 13 nM.
Turning to `CCN1CCN(c2nc(/C=C/c3cccc(N4CCOCC4)c3)cc3ccccc23)CC1` [Example 204, 3-{(E)-2-[3-(4-Morpholinyl)Phenyl]Ethenyl}-1-(4-Ethylpiperazin-1-Yl)Isoquinoline Oxalate], the Ki in assay [1] came out at 18.5 nM; in assay [2] it was 25.5 nM.
Turning to `CCN1CCN(c2nc(-c3ccc4c(c3)CC(C)(CO)O4)cc3ccsc23)CC1` (stereo not shown) [Example 456, dihydrochloride], the Ki in assay [1] turned out to be 16.2 nM; in assay [2] it was 63.3 nM.
Regarding `CCN1CCN(c2nc(-c3ccc(OCCCc4cccnc4)cc3)cc3ccccc23)CC1` [Example 157, 3-[4-[3-(3-pyridyl)propoxy]phenyl]-1-(4-ethylpiperazin-1-yl)isoquinoline hydrochloride], the values for the Ki in assay [1] and in assay [2] were 4.9 nM and 29.7 nM, respectively.
Consider `CCN1CCN(c2nc(-c3ccc(C(C)(C)CCO)cc3)cc3ccsc23)CC1` [Example 443, 7-(4-ethylpiperazin-1-yl)-5-[4-(3-hydroxy-1,1-dimethylpropyl)phenyl]thieno[2,3-c]pyridine dihydrochloride], for which the results for the Ki in assay [1] and in assay [2] were 1.85 nM and 10.2 nM, respectively.
The matching figures for `CCN1CCN(c2nc(C#CC(=O)c3ccccc3)cc3ccccc23)CC1` [Example 184, 1-(1-Ethylpiperazin-4-Yl)-3-Benzoylethynylisoquinoline Oxalate]: 122 nM and 30.9 nM.
For the compound `CCN1CCN(c2nc(-c3ccnc(Cl)c3)cc3ccccc23)CC1` [406 2-chloro, 1-(4-ethylpiperazin-1-yl)-3-(2-chloropyridin-4-yl)isoquinoline], the Ki was 11.1 nM in assay [1] and 12.2 nM in assay [2].
Regarding `CCN1CCN(c2nc(-c3ccc(S(=O)(=O)CC)cc3)cc3ccsc23)CC1` [Example 450, 7-(4-ethylpiperazin-1-yl)-5-(4-ethanesulfonylphenyl)thieno[2,3-c]pyridine dihydrochloride], the Ki in assay [1] was determined as 15.2 nM; in assay [2] it was 6.89 nM.
The matching figures for `CCCCNC(=O)Cc1ccc(-c2cc3ccccc3c(N3CCN(CC)CC3)n2)cc1` [Example 89, 3-(4-Butylaminocarbonylmethylphenyl)-1-(4-ethylpiperazin-1-yl)isoquinoline Hydrochloride]: 10 nM and 6.3 nM.
As for `CCN1CCN(c2nc(-c3ccc(C(O)CCO)cc3)cc3ccccc23)CC1` (stereo not shown) [Example 24, 3-[4-(1,3-dihydroxypropyl)phenyl]-1-(4-ethylpiperazin-1-yl)isoquinoline hydrochloride], the Ki in assay [1] amounted to 7.4 nM; in assay [2], 11.7 nM.
`CCCN(C)C(=O)c1ccc(-c2cc3ccccc3c(N3CCN(CC)CC3)n2)cc1` [Example 381]: the Ki in assay [1] was found to be 27.3 nM; in assay [2] it was 11.1 nM.
On to `CCN1CCN(c2nc(-c3ccc(C(N)=O)cc3)cc3ccccc23)CC1` [Example 408, 1-(4-ethylpiperazin-1-yl)-3-(4-carbamoylphenyl)isoquinoline], for which the values for the Ki in assay [1] and in assay [2] were 36.3 nM and 19.8 nM, respectively.
`CCN1CCN(c2nc(-c3ccc(C#CC(C)(C)O)cc3)cc3sccc23)CC1` [Example 466, 4-(4-ethylpiperazin-1-yl)-6-[4-(3-hydroxy-3-methyl-1-butynyl)phenyl]thieno[3,2-c]pyridine oxalate]: the figures for the Ki in assay [1] and in assay [2] were 1 nM and 49.8 nM, respectively.
Consider `CCN1CCN(c2nc(-c3ccc(OC4CCCCC4O)cc3)cc3ccccc23)CC1` (stereo not shown) [Example 426, 1-(4-ethylpiperazin-1-yl)-3-[4-(2-hydroxycyclohexyloxy)phenyl]isoquinoline Hydrochloride], for which the Ki in assay [1] is 7.1 nM; in assay [2], 133 nM.
For the compound `CN1CCN(c2nc(-c3ccc(OCCO)cc3)cc3ccsc23)CC1` [Example 253, 5-[4-(2-hydroxyethoxy)phenyl]-7-(4-methylpiperazin-1-yl)thieno[2,3-c]pyridine Hydrochloride], the Ki in assay [1] is 5.98 nM; in assay [2], 75.4 nM.
The matching figures for `CCN1CCN(c2nc(-c3ccc([C@H]4CC[C@H](O)CC4)cc3)cc3ccccc23)CC1` [Example 398, 1-(4-Ethylpiperazin-1-yl)-3-[4-(trans-4-Hydroxycyclohexyl)Phenyl]Isoquinoline Dihydrochloride]: 5.9 nM and 8 nM.
Regarding `CN(C)CCC=C1c2ccccc2C=Cc2ccccc21` [Cyclobenzaprine, cyclobenzaprine hydrochloride, reference compound], the Ki is 29 nM in assay [1] and 25 nM in assay [2].
Turning to `CCN1CCN(c2nc(-c3ccc(OC)c(CCCCO)c3)cc3ccccc23)CC1` [Example 35, 3-[3-(4-hydroxybutyl)-4-methoxyphenyl]-1-(4-ethylpiperazin-1-yl)isoquinoline hydrochloride], the Ki in assay [1] came to 5.7 nM; in assay [2] it was 35.3 nM.
The matching figures for `CCN1CCN(c2nc(-c3ccc(O[C@H](C)CO)cc3)cc3ccoc23)CC1` [Example 302, 7-(1-ethylpiperazin-4-yl)-5-{4-[(R)-2-hydroxy-1-methylethoxy]phenyl}furo[2,3-c]pyridine dihydrochloride]: 30 nM and 0.53 nM.
The matching figures for `CCN1CCN(c2nc(-c3ccc(S(=O)(=O)N(C)C)cc3)cc3ccccc23)CC1` [Example 362, 1-(4-ethylpiperazin-1-yl)-3-[4-(N,N-dimethylsulfamoyl)phenyl]isoquinoline dihydrochloride]: 24.1 nM and 4.5 nM.
For the compound `CCCNC(=O)c1ccc(-c2cc3ccccc3c(N3CCN(CC)CC3)n2)cc1F` [Example 384, 1-(4-Ethylpiperazin-1-yl)-3-[4-(N-Propylcarbamoyl)-3-Fluorophenyl]Isoquinoline Dihydrochloride], the Ki in assay [1] is 0.1 nM; in assay [2], 27.3 nM.
For `CCN1CCN(c2nc(-c3ccc(OCCCO)cc3)cc3sccc23)CC1` [Example 462, 4-(4-ethylpiperazin-1-yl)-6-[4-(3-hydroxypropoxy)phenyl]thieno[3,2-c]pyridine dihydrochloride], the Ki came out at 2.84 nM in assay [1] and 4.83 nM in assay [2].
The matching figures for `CCN1CCN(c2nc(-c3ccc(OCC#N)cc3)cc3ccccc23)CC1` [Example 51, 3-(4-Cyanomethoxyphenyl)-1-(4-Ethylpiperazin-1-Yl)Isoquinoline Hydrochloride]: 1.87 nM and 103 nM.
The matching figures for `CCN1CCN(c2nc(-c3ccc(C(O)C4CCCCC4)cc3)cc3ccccc23)CC1` (stereo not shown) [Example 409, 1-(4-ethylpiperazin-1-yl)-3-[4-(cyclohexylhydroxymethyl)phenyl]isoquinoline]: 9.7 nM and 16.4 nM.
On to `CCN1CCN(c2nc(-c3ccnc(OCCOC)c3)cc3ccccc23)CC1` [Example 407, 1-(4-ethylpiperazin-1-yl)-3-[2-(2-methoxyethoxy)pyridin-4-yl]isoquinoline], for which the results for the Ki in assay [1] and in assay [2] were 26.1 nM and 17.8 nM, respectively.
The matching figures for `CCN1CCN(c2nc(C#Cc3cncc(CCCOC)c3)cc3ccccc23)CC1` [Example 186, 1-(1-Ethylpiperazin-4-Yl)-3-[3-(3-Methoxypropyl)-5-Pyridyl]Ethynylisoquinoline]: 4.5 nM and 2.83 nM.
Take `CCN1CCN(c2nc(-c3ccc(OCCO)cc3OC)cc3ccccc23)CC1` [Example 425, 1-(4-ethylpiperazin-1-yl)-3-[4-(2-hydroxyethoxy)-2-methoxyphenyl]isoquinoline]: the Ki in assay [1] was 2.55 nM; in assay [2], 321 nM.
`CCN1CCN(c2nc(-c3ccc(CCC(C)OC)nc3)cc3ccccc23)CC1` (stereo not shown) [Example 144, 1-(1-Ethylpiperazin-4-yl)-3-[2-(3-Methoxybutyl)Pyridin-5-yl]Isoquinoline Oxalate]: the Ki in assay [1] was found to be 12.4 nM; in assay [2], 4.8 nM.
`CCN1CCN(c2nc(-c3ccc(CC4CCOCC4)cc3)cc3ccccc23)CC1` [Example 399, 1-(4-Ethylpiperazin-1-yl)-3-[4-(tetrahydropyran-4-yl)Methylphenyl]Isoquinoline Dihydrochloride]: the Ki was found to be 17.2 nM in assay [1] and 53 nM in assay [2].

Values taken from US6875761B2 (Eisai Co., Ltd., priority 1997, dated 2005).
